According to patent US12612412B2, “Antiviral heterocyclic compounds” (Enanta Pharmaceuticals, Inc., priority 2021, dated 2026):
Where two headings read alike, the source gives them in different places.

Tests used:
[1] = tested on: HMPV clinical isolate TN/1501/A1; assay: HMPV antiviral assay Method-B (clinical isolate TN/1501/A1 in LLC-MK2 cells, ATP-Lite readout); assay type: cell-based, Human metapneumovirus (HMPV); conditions: hMPV WT1501 (clinical isolate TN/1501/A1), 6 days
How it was run: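 EC50 derived by four-parameter logistic fit of percent cell health, measured by ATP-Lite luminescence and normalised to virus-only and uninfected-cell controls. Compounds run in duplicate from 10 μM top, 3-fold, 10 points. Infection: LLC-MK2 cells, MOI 0.014, 2 μg/mL final TPCK-trypsin, serum-free, 6 days at 37° C.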

[2] = tested on: genotype A, "Long" strain RSV; assay: RSV-A assay (CPE protection in Hep-2 cells, ATPlite readout); assay type: cell-based, Human respiratory syncytial virus (HRSV); conditions: RSV-A Long strain, MOI 0.1, CPE protection, read-out: Human RSV-A (“Long”) EC50
How it was run: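 In this cytopathic-effect protection format, infected Hep-2 cultures (MOI 0.1) are exposed to compound for 5 days. Surviving cell ATP is quantified with ATPlite, and EC50 is determined.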

[3] = human metapneumovirus, LLC-MK2, 144 h
[4] = human respiratory syncytial virus

| Structure (SMILES) | EC50 [1, 3] [nM] | EC50 [2, 4] [nM] | EC50 [1] [nM] | EC50 [2] [nM] |
| --- | --- | --- | --- | --- |
| COc1cc(-c2nc([C@](O)(CNC(=O)c3cc(OC)c4nn(C5CC5)cc4c3)C(F)(F)F)cc3c2OC[C@]3(C)C(N)=O)ccc1F [Example 913] | > 500 | > 200 | – | – |
| COc1cc(-c2nc([C@@](O)(CNC(=O)c3cc(OC)c4nn(C5CC5)cc4c3)C(F)(F)F)cc3c2OC[C@]3(C)C(N)=O)ccc1F [Example 914] | > 500 | < 200 | – | – |
| COc1cc(C(=O)NC[C@](O)(c2cc3c(c(-c4ccc(F)c(F)c4F)n2)OC[C@]3(C)C(N)=O)C(F)(F)F)cc2cn(C3CC3)nc12 [Example 915] | < 500 | < 200 | – | – |
| COc1cc(C(=O)NCC(O)(c2cc3c(c(-c4cc(F)c(F)c(F)c4)n2)OC[C@]3(C)C(N)=O)C(F)(F)F)cc2cn(C3CC3)nc12 (stereo partly drawn) [Example 916] | < 500 | < 200 | – | – |
| COc1cc(C(=O)NC[C@@](O)(c2cc3c(c(-c4cccc(OC(F)F)c4)n2)OC[C@]3(C)C(N)=O)C(F)(F)F)cc2cn(C3CC3)nc12 [Example 917] | > 500 | < 200 | – | – |
| COc1cc(C(=O)NC[C@](O)(c2cc3c(c(-c4cccc(OC(F)F)c4)n2)OC[C@]3(C)C(N)=O)C(F)(F)F)cc2cn(C3CC3)nc12 [Example 918] | > 500 | < 200 | – | – |
| COc1cc(C(=O)NC[C@@](O)(c2cc3c(c(-c4ccc(OC(F)F)c(F)c4)n2)OC[C@]3(C)C(N)=O)C(F)(F)F)cc2cn(C3CC3)nc12 [Example 919] | > 500 | > 200 | – | – |
| COc1cc(C(=O)NC[C@](O)(c2cc3c(c(-c4ccc(OC(F)F)c(F)c4)n2)OC[C@]3(C)C(N)=O)C(F)(F)F)cc2cn(C3CC3)nc12 [Example 920] | < 500 | < 200 | – | – |
| COc1cc(C(=O)NC[C@@](O)(c2cc3c(c(-c4cccc(Cl)c4F)n2)OC[C@]3(C)C(N)=O)C(F)(F)F)cc2cn(C3CC3)nc12 [Example 921] | > 500 | > 200 | – | – |
| COc1cc(C(=O)NC[C@](O)(c2cc3c(c(-c4cccc(Cl)c4F)n2)OC[C@]3(C)C(N)=O)C(F)(F)F)cc2cn(C3CC3)nc12 [Example 922] | < 500 | < 200 | – | – |
| COc1ccc(-c2nc([C@](O)(CNC(=O)c3cc(OC)c4nn(C5CC5)cc4c3)C(F)(F)F)cc3c2OC[C@]3(C)C(N)=O)cc1 [Example 923] | > 500 | > 200 | – | – |
| COc1ccc(-c2nc([C@@](O)(CNC(=O)c3cc(OC)c4nn(C5CC5)cc4c3)C(F)(F)F)cc3c2OC[C@]3(C)C(N)=O)cc1 [Example 924] | > 500 | < 200 | – | – |
| COc1cc(C(=O)NC[C@@](O)(c2cc3c(c(-c4ccc(OC(F)F)cc4)n2)OC[C@]3(C)C(N)=O)C(F)(F)F)cc2cn(C3CC3)nc12 [Example 925] | > 500 | < 200 | – | – |
| COc1cc(C(=O)NC[C@](O)(c2cc3c(c(-c4ccc(OC(F)F)cc4)n2)OC[C@]3(C)C(N)=O)C(F)(F)F)cc2cn(C3CC3)nc12 [Example 926] | > 500 | < 200 | – | – |
| COc1cc(C(=O)NCC(O)(c2cc3c(c(-c4ccc(OC(F)(F)F)c(F)c4)n2)OC[C@]3(C)C(N)=O)C(F)(F)F)cc2cn(C3CC3)nc12 (stereo partly drawn) [Example 927] | > 500 | < 200 | – | – |
| COc1cc(C(=O)NC[C@](O)(c2cc3c(c(-c4cccc5c4OC(F)(F)O5)n2)OC[C@]3(C)C(N)=O)C(F)(F)F)cc2cn(C3CC3)nc12 [Example 928] | > 500 | < 200 | – | – |
| COc1cc(C(=O)NC[C@](O)(c2cc3c(c(-c4ccc(Cl)c(F)c4F)n2)OC[C@]3(C)C(N)=O)C(F)(F)F)cc2cn(C3CC3)nc12 [Example 929] | < 500 | < 200 | – | – |
| COc1cc(C(=O)NC[C@](O)(c2cc3c(c(-c4ccc(F)c(Cl)c4F)n2)OC[C@]3(C)C(N)=O)C(F)(F)F)cc2cn(C3CC3)nc12 [Example 930] | < 500 | < 200 | – | – |
| COc1cc(C(=O)NCC(O)(c2cc3c(c(-c4cc(F)c(F)c(Cl)c4)n2)OC[C@]3(C)C(N)=O)C(F)(F)F)cc2cn(C3CC3)nc12 (stereo partly drawn) [Example 931] | < 500 | < 200 | – | – |
| COc1cc(C(=O)NC[C@](O)(c2cc3c(c(-c4cc(F)c(Cl)cc4F)n2)OC[C@]3(C)C(N)=O)C(F)(F)F)cc2cn(C3CC3)nc12 [Example 932] | < 500 | < 200 | – | – |
| COc1ccc(-c2nc([C@@](O)(CNC(=O)c3cc(OC)c4nn(C5CC5)cc4c3)C(F)(F)F)cc3c2OC[C@]3(C)C(N)=O)cc1Cl [Example 933] | > 500 | < 200 | – | – |
| COc1cc(-c2nc([C@@](O)(CNC(=O)c3cc(OC)c4nn(C5CC5)cc4c3)C(F)(F)F)cc3c2OC[C@]3(C)C(N)=O)ccc1Cl [Example 934] | > 500 | < 200 | – | – |
| COc1cc(C(=O)NC[C@](O)(c2cc3c(c(-c4ccc(Cl)c(Cl)c4)n2)OC[C@]3(C)C(N)=O)C(F)(F)F)cc2cn(C3CC3)nc12 [Example 935] | > 500 | < 200 | – | – |
| COc1cc(C(=O)NC[C@](O)(c2cc3c(c(-c4csc5c(F)cccc45)n2)OC[C@]3(C)C(N)=O)C(F)(F)F)cc2cn(C3CC3)nc12 [Example 936] | < 500 | < 200 | – | – |

The remaining lines, values ahead:

| EC50 [1, 3] [nM] | EC50 [2, 4] [nM] | EC50 [1] [nM] | EC50 [2] [nM] | Structure (SMILES) |
| --- | --- | --- | --- | --- |
| > 500 | > 200 | – | – | COc1cc(C(=O)NC[C@](O)(c2cc3c(c(-c4csc5c(Cl)cccc45)n2)OC[C@]3(C)C(N)=O)C(F)(F)F)cc2cn(C3CC3)nc12 [Example 937] |
| > 500 | > 200 | – | – | COc1cc(C(=O)NC[C@](O)(c2cc3c(c(-c4ccc5nn(C(F)F)cc5c4)n2)OC[C@]3(C)C(N)=O)C(F)(F)F)cc2cn(C3CC3)nc12 [Example 938] |
| > 500 | < 200 | – | – | COc1cc(C(=O)NC[C@](O)(c2cc3c(c(-c4ccc5c(ccn5C(F)F)c4)n2)OC[C@]3(C)C(N)=O)C(F)(F)F)cc2cn(C3CC3)nc12 [Example 939] |
| – | – | > 500 | < 200 | COc1cc(C(=O)NCC(O)(c2cc3c(c(-c4ccc5ccn(C(F)F)c5c4)n2)OCC3(C)C(N)=O)C(F)(F)F)cc2cn(C3CC3)nc12 (stereo not drawn) [Example 940] |
| > 500 | > 200 | – | – | COc1cc(C(=O)NC[C@](O)(c2cc3c(c(-c4ccc5cn(C(F)F)nc5c4)n2)OC[C@]3(C)C(N)=O)C(F)(F)F)cc2cn(C3CC3)nc12 [Example 941] |
| > 500 | > 200 | – | – | COc1cc(-c2nc([C@@](O)(CNC(=O)c3cc(OC)c4nn(C5CC5)cc4c3)C(F)(F)F)cc3c2OC[C@]3(C)C(N)=O)cc2cn(C(F)F)nc12 [Example 942] |
| > 500 | < 200 | – | – | COc1cc(C(=O)NC[C@](O)(c2cc3c(c(-c4csc5ccccc45)n2)OC[C@]3(C)C(N)=O)C(F)(F)F)cc2cn(C3CC3)nc12 [Example 943] |
| > 500 | < 200 | – | – | COc1cc(C(=O)NC[C@](O)(c2cc3c(c(-c4csc5ccc(F)cc45)n2)OC[C@]3(C)C(N)=O)C(F)(F)F)cc2cn(C3CC3)nc12 [Example 944] |
| > 500 | < 200 | – | – | COc1cc(C(=O)NC[C@](O)(c2cc3c(c(-c4csc(C(F)F)c4)n2)OC[C@]3(C)C(N)=O)C(F)(F)F)cc2cn(C3CC3)nc12 [Example 945] |
| < 500 | < 200 | – | – | COc1cc(C(=O)NC[C@](O)(c2cc3c(c(-c4csc(C(F)(F)F)c4)n2)OC[C@]3(C)C(N)=O)C(F)(F)F)cc2cn(C3CC3)nc12 [Example 946] |
| > 500 | < 200 | – | – | COc1cc(C(=O)NC[C@](O)(c2cc3c(c(-c4cc(C(F)F)cs4)n2)OC[C@]3(C)C(N)=O)C(F)(F)F)cc2cn(C3CC3)nc12 [Example 947] |
| > 500 | < 200 | – | – | COc1cc(C(=O)NC[C@](O)(c2cc3c(c(-c4ccc(C(F)F)s4)n2)OC[C@]3(C)C(N)=O)C(F)(F)F)cc2cn(C3CC3)nc12 [Example 948] |
| > 500 | < 200 | – | – | COc1cc(C(=O)NC[C@](O)(c2cc3c(c(-c4cnc(C(F)(F)F)s4)n2)OC[C@]3(C)C(N)=O)C(F)(F)F)cc2cn(C3CC3)nc12 [Example 950] |
| < 500 | < 200 | – | – | COc1cc(C(=O)NC[C@](O)(c2cc3c(c(-c4csc(C(F)(F)F)n4)n2)OC[C@]3(C)C(N)=O)C(F)(F)F)cc2cn(C3CC3)nc12 [Example 951] |
| < 500 | < 200 | – | – | COc1cc(C(=O)NC[C@](O)(c2cc3c(c(-c4cc(Cl)c(F)cc4F)n2)OC[C@]3(C)C(N)=O)C(F)(F)F)cc2cn(C3CC3)nc12 [Example 952] |
